Source: PubChem BioAssay AID1963977 (Molecular Pharmacology Branch, DTP, NCI, 2024)

System: 624824-186-R-J3-PDC multicell spheroids, viability
Assay: Anticancer human tumor 624824-186-R-J3-PDC patient-derived colon adenocarcinoma cell line growth inhibition [PI3K]
Details: for viability, T/C: stronger effect = lower value; active = viability on the fitted dose curve at most 10% of control; inactive = the rest
Method in brief: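 Tumor cells grown as multi-cell spheroids with HUVEC endothelial cells and MSC fibroblast-like stroma were treated with targeted agents combined with inavolisib, alpelisib, duvelisib or copanlisib. Doses fell in half-log steps from near clinical Cmax, else from 10 microM. Viability was measured.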

[1] = curve of first compound, second compound 0.0316 µM
[2] = curve of first compound, second compound 0.1 µM
[3] = curve of first compound, second compound 0.316 µM
[4] = curve of first compound, second compound 1 µM
[5] = second compound 0.0316 µM, first compound 0.0316 µM
[6] = second compound 0.0316 µM, first compound 0.1 µM
[7] = second compound 0.0316 µM, first compound 0.316 µM
[8] = second compound 0.0316 µM, first compound 1 µM
[9] = second compound 0.0316 µM, first compound 3.16 µM
[10] = second compound 0.0316 µM, first compound 10 µM
[11] = second compound 0.1 µM, first compound 0.0316 µM
[12] = second compound 0.1 µM, first compound 0.1 µM
[13] = second compound 0.1 µM, first compound 0.316 µM
[14] = second compound 0.1 µM, first compound 1 µM
[15] = second compound 0.1 µM, first compound 3.16 µM
[16] = second compound 0.1 µM, first compound 10 µM
[17] = second compound 0.316 µM, first compound 0.0316 µM
[18] = second compound 0.316 µM, first compound 0.1 µM
[19] = second compound 0.316 µM, first compound 0.316 µM
[20] = second compound 0.316 µM, first compound 1 µM
[21] = second compound 0.316 µM, first compound 3.16 µM
[22] = second compound 0.316 µM, first compound 10 µM
[23] = second compound 1 µM, first compound 0.0316 µM
[24] = second compound 1 µM, first compound 0.1 µM
[25] = second compound 1 µM, first compound 0.316 µM
[26] = second compound 1 µM, first compound 1 µM
[27] = second compound 1 µM, first compound 3.16 µM
[28] = second compound 1 µM, first compound 10 µM
[29] = curve of first compound, second compound 3.16 µM
[30] = curve of first compound, second compound 10 µM
[31] = second compound 3.16 µM, first compound 0.0316 µM
[32] = second compound 3.16 µM, first compound 0.1 µM
[33] = second compound 3.16 µM, first compound 0.316 µM
[34] = second compound 3.16 µM, first compound 1 µM
[35] = second compound 3.16 µM, first compound 3.16 µM
[36] = second compound 3.16 µM, first compound 10 µM
[37] = second compound 10 µM, first compound 0.0316 µM
[38] = second compound 10 µM, first compound 0.1 µM
[39] = second compound 10 µM, first compound 0.316 µM
[40] = second compound 10 µM, first compound 1 µM
[41] = second compound 10 µM, first compound 3.16 µM
[42] = second compound 10 µM, first compound 10 µM
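Note: spheroids exposed to agents for seven days before luminescence read.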
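Throughout, for viability, T/C: luminescent signal used as a stand-in for spheroid viability; percent viability relative to DMSO vehicle control wells taken as 100%.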

C=CC(=O)N1CCN(c2nc(=O)n(-c3c(C)ccnc3C(C)C)c3nc(-c4c(O)cccc4F)c(F)cc23)C(C)C1 (stereo not given) + COc1c(OCCCN2CCOCC2)ccc2c3n(c(=NC(=O)c4cnc(N)nc4)nc12)CCN3
> 10 µM: IC50 (curve of first compound, second compound 0.00316 µM) | IC50 (curve of first compound, second compound 0.01 µM) | IC50 [1] | IC50 [2]
inactive: viability, T/C (second compound 0.00316 µM, first compound 0.0316 µM) 119% | viability, T/C (second compound 0.00316 µM, first compound 0.1 µM) 100% | viability, T/C (second compound 0.00316 µM, first compound 0.316 µM) 112% | viability, T/C (second compound 0.00316 µM, first compound 1 µM) 97% | viability, T/C (second compound 0.00316 µM, first compound 3.16 µM) 100% | viability, T/C (second compound 0.00316 µM, first compound 10 µM) 99.1% | viability, T/C (second compound 0.01 µM, first compound 0.0316 µM) 93.1% | viability, T/C (second compound 0.01 µM, first compound 0.1 µM) 96.6% | viability, T/C (second compound 0.01 µM, first compound 0.316 µM) 104% | viability, T/C (second compound 0.01 µM, first compound 1 µM) 108% | viability, T/C (second compound 0.01 µM, first compound 3.16 µM) 97.7% | viability, T/C (second compound 0.01 µM, first compound 10 µM) 98.8% | viability, T/C [5] 99.8% | viability, T/C [6] 101% | viability, T/C [7] 92.9% | viability, T/C [8] 99% | viability, T/C [9] 89.7% | viability, T/C [10] 92.7% | viability, T/C [11] 78.1% | viability, T/C [12] 79.3% | viability, T/C [13] 78.7% | viability, T/C [14] 80.6% | viability, T/C [15] 80.2% | viability, T/C [16] 72.7% | viability, T/C [17] 48.7% | viability, T/C [18] 53.1% | viability, T/C [19] 53.2% | viability, T/C [20] 46.7% | viability, T/C [21] 51.8% | viability, T/C [22] 41.2% | viability, T/C [23] 28.9% | viability, T/C [24] 30.5% | viability, T/C [25] 29% | viability, T/C [26] 25.6% | viability, T/C [27] 26.3% | viability, T/C [28] 33.9%
< 0.0316 µM: IC50 [4]
3.43 µM: IC50 [3]

CC(Cn1ccc(-c2ccc(C#N)c(Cl)c2)n1)NC(=O)c1cc(C(C)O)[nH]n1 (stereo not given) + Cc1nc(NC(=O)N2CCCC2C(N)=O)sc1-c1ccnc(C(C)(C)C(F)(F)F)c1
> 10 µM: IC50 [1] | IC50 [2] | IC50 [3] | IC50 [4] | IC50 [29] | IC50 [30]
inactive: viability, T/C [5] 101% | viability, T/C [6] 107% | viability, T/C [7] 102% | viability, T/C [8] 104% | viability, T/C [9] 104% | viability, T/C [10] 113% | viability, T/C [11] 108% | viability, T/C [12] 105% | viability, T/C [13] 108% | viability, T/C [14] 102% | viability, T/C [15] 107% | viability, T/C [16] 109% | viability, T/C [17] 107% | viability, T/C [18] 101% | viability, T/C [19] 104% | viability, T/C [20] 93.1% | viability, T/C [21] 115% | viability, T/C [22] 107% | viability, T/C [23] 111% | viability, T/C [24] 101% | viability, T/C [25] 109% | viability, T/C [26] 101% | viability, T/C [27] 101% | viability, T/C [28] 98.7% | viability, T/C [31] 86.4% | viability, T/C [32] 91.5% | viability, T/C [33] 88.3% | viability, T/C [34] 91.4% | viability, T/C [35] 79.3% | viability, T/C [36] 86.1% | viability, T/C [37] 72.4% | viability, T/C [38] 75.6% | viability, T/C [39] 66.5% | viability, T/C [40] 67.3% | viability, T/C [41] 67.3% | viability, T/C [42] 62.4%

Cn1ncc(Cl)c1-c1cc(C(=O)NC(CN)Cc2cccc(F)c2)sc1Cl (stereo not given) + CC(Nc1ncnc2nc[nH]c12)c1cc2cccc(Cl)c2c(=O)n1-c1ccccc1
> 10 µM: IC50 [1]
2.26 µM: IC50 [30]
inactive: viability, T/C [5] 95.7% | viability, T/C [6] 109% | viability, T/C [7] 103% | viability, T/C [8] 69.4% | viability, T/C [9] 62.4% | viability, T/C [10] 47.8% | viability, T/C [11] 115% | viability, T/C [12] 101% | viability, T/C [13] 96.1% | viability, T/C [14] 83.5% | viability, T/C [15] 64.5% | viability, T/C [16] 46.5% | viability, T/C [17] 103% | viability, T/C [18] 101% | viability, T/C [19] 90.7% | viability, T/C [20] 75.4% | viability, T/C [21] 59.9% | viability, T/C [22] 41% | viability, T/C [23] 107% | viability, T/C [24] 102% | viability, T/C [25] 91.9% | viability, T/C [26] 78.6% | viability, T/C [27] 61.5% | viability, T/C [28] 35.2% | viability, T/C [31] 96.8% | viability, T/C [32] 94% | viability, T/C [33] 86.3% | viability, T/C [34] 64.4% | viability, T/C [35] 57.6% | viability, T/C [36] 37.5% | viability, T/C [37] 94.3% | viability, T/C [38] 89.6% | viability, T/C [39] 73.5% | viability, T/C [40] 60.5% | viability, T/C [41] 45.7% | viability, T/C [42] 38.5%
5.63 µM: IC50 [3]
8.15 µM: IC50 [2]
5.17 µM: IC50 [4]
4.18 µM: IC50 [29]

CC(=O)c1c(C)c2cnc(Nc3ccc(N4CCNCC4)cn3)nc2n(C2CCCC2)c1=O + CC(Nc1ncnc2nc[nH]c12)c1cc2cccc(Cl)c2c(=O)n1-c1ccccc1
inactive: viability, T/C (second compound 0.0316 µM, first compound 0.000316 µM) 107% | viability, T/C (second compound 0.0316 µM, first compound 0.001 µM) 96.8% | viability, T/C (second compound 0.0316 µM, first compound 0.00316 µM) 103% | viability, T/C (second compound 0.0316 µM, first compound 0.01 µM) 113% | viability, T/C [5] 99.7% | viability, T/C [6] 122% | viability, T/C (second compound 0.1 µM, first compound 0.000316 µM) 93% | viability, T/C (second compound 0.1 µM, first compound 0.001 µM) 91.9% | viability, T/C (second compound 0.1 µM, first compound 0.00316 µM) 106% | viability, T/C (second compound 0.1 µM, first compound 0.01 µM) 101% | viability, T/C [11] 105% | viability, T/C [12] 111% | viability, T/C (second compound 0.316 µM, first compound 0.000316 µM) 94.9% | viability, T/C (second compound 0.316 µM, first compound 0.001 µM) 102% | viability, T/C (second compound 0.316 µM, first compound 0.00316 µM) 99.9% | viability, T/C (second compound 0.316 µM, first compound 0.01 µM) 103% | viability, T/C [17] 107% | viability, T/C [18] 119% | viability, T/C (second compound 1 µM, first compound 0.000316 µM) 94.4% | viability, T/C (second compound 1 µM, first compound 0.001 µM) 103% | viability, T/C (second compound 1 µM, first compound 0.00316 µM) 102% | viability, T/C (second compound 1 µM, first compound 0.01 µM) 104% | viability, T/C [23] 116% | viability, T/C [24] 109% | viability, T/C (second compound 3.16 µM, first compound 0.000316 µM) 94.6% | viability, T/C (second compound 3.16 µM, first compound 0.001 µM) 116% | viability, T/C (second compound 3.16 µM, first compound 0.00316 µM) 113% | viability, T/C (second compound 3.16 µM, first compound 0.01 µM) 103% | viability, T/C [31] 99.2% | viability, T/C [32] 110% | viability, T/C (second compound 10 µM, first compound 0.000316 µM) 97.7% | viability, T/C (second compound 10 µM, first compound 0.001 µM) 99.8% | viability, T/C (second compound 10 µM, first compound 0.00316 µM) 94.7% | viability, T/C (second compound 10 µM, first compound 0.01 µM) 89.5% | viability, T/C [37] 90.3% | viability, T/C [38] 83%
> 0.1 µM: IC50 [1] | IC50 [2] | IC50 [3] | IC50 [4] | IC50 [29] | IC50 [30]

CC(=O)c1c(C)c2cnc(Nc3ccc(N4CCNCC4)cn3)nc2n(C2CCCC2)c1=O
> 0.1 µM: IC50 (curve of compound)
inactive: viability, T/C (compound 0.000316 µM) 101% [middle of 4 runs] | viability, T/C (compound 0.001 µM) 103% [middle of 4 runs] | viability, T/C (compound 0.00316 µM) 104% [middle of 4 runs] | viability, T/C (compound 0.01 µM) 98.7% [middle of 4 runs] | viability, T/C (compound 0.0316 µM) 108% [middle of 4 runs] | viability, T/C (compound 0.1 µM) 105% [middle of 4 runs]
